Assay results as given in PMC5209882, “The Coptotermes gestroi aldo–keto reductase: a multipurpose enzyme for biorefinery applications” (Biotechnology for Biofuels, 2017).
Each block holds one molecule with its values, some of them ahead of it.

Key:
[1] = target: T1, CgAKR-1 (Coptotermes gestroi, UniProt A0A140CVV2); assay: NADPH oxidation at […] nm, varied NADPH; format: biochemical; details: 5 mM 2-nitrobenzaldehyde; 50 mM sodium phosphate pH 7.0 (standard assay), 30 °C; Kd apparently from kinetics
T1 construct: full-length ORF of 334 residues, N-terminal 6xHis tag (pET-28a, NheI/BamHI), E. coli ArcticExpress (DE3); Ni and size exclusion purified
T1 sequence (A0A140CVV2 1-334): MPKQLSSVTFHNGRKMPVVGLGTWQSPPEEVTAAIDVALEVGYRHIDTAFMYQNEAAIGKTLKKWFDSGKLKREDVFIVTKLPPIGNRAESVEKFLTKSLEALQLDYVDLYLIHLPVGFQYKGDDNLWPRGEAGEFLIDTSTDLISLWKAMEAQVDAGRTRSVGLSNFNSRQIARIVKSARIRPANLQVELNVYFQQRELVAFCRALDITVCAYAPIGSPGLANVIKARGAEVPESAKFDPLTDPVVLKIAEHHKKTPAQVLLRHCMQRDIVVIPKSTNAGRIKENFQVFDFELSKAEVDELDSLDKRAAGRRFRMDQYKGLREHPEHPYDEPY

[2] = target: T1, CgAKR-1; assay: X-ray crystal structure; details: cofactor-binding site; complex described in text, ligand state not stated explicitly
[3] = substrate: O=Cc1ccccc1[N+](=O)[O-]; assay: purified protein; format: biochemical, Coptotermes gestroi; details: 0.2 mM NADPH, 50 mM sodium phosphate pH 7.0 (standard assay), 30 °C

Kd [1]: 60 µM
Molecule: NC(=O)C1=CN([C@@H]2O[C@H](COP(=O)(O)OP(=O)(O)OC[C@H]3O[C@@H](n4cnc5c(N)ncnc54)[C@H](OP(=O)(O)O)[C@@H]3O)[C@@H](O)[C@H]2O)C=CC1 [NADPH]

Molecule: NC(=O)c1ccc[n+]([C@@H]2O[C@H](COP(=O)(O)OP(=O)(O)OC[C@H]3O[C@@H](n4cnc5c(N)ncnc54)[C@H](OP(=O)(O)O)[C@@H]3O)[C@@H](O)[C@H]2O)c1 [NADP]
X-ray crystal structure [2]: the pocket was mainly delimited by the cofactor (NADP) and nine amino acids

B1: CgAKR-1 (Coptotermes gestroi) (protein)
chain: MPKQLSSVTFHNGRKMPVVGLGTWQSPPEEVTAAIDVALEVGYRHIDTAFMYQNEAAIGKTLKKWFDSGKLKREDVFIVTKLPPIGNRAESVEKFLTKSLEALQLDYVDLYLIHLPVGFQYKGDDNLWPRGEAGEFLIDTSTDLISLWKAMEAQVDAGRTRSVGLSNFNSRQIARIVKSARIRPANLQVELNVYFQQRELVAFCRALDITVCAYAPIGSPGLANVIKARGAEVPESAKFDPLTDPVVLKIAEHHKKTPAQVLLRHCMQRDIVVIPKSTNAGRIKENFQVFDFELSKAEVDELDSLDKRAAGRRFRMDQYKGLREHPEHPYDEPY
notes: full-length ORF of 334 residues, N-terminal 6xHis tag (pET-28a, NheI/BamHI), E. coli ArcticExpress (DE3); Ni and size exclusion purified
Km [3]: 150 µM | kcat [3]: 7.5 s⁻¹
